Here are results for 20 compounds from patent US9663526B2, “Aminopyrimidinyl compounds” (Pfizer Inc., priority 2014, dated 2017).

The term IC50 denotes the point on the concentration scale where inhibition reaches its midpoint.

The subject of assay [1] is interferon alpha signalling (TYK2 and JAK1), STAT3 phosphorylation. Description: Human whole blood INFα induced STAT3 phosphorylation assay.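 Note: flow cytometry with anti-pSTAT3 staining, signal as percent-positive × mean fluorescence, baseline from unstimulated wells, 11-point dilution series, IC50 as inhibition of pSTAT3.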 It counts as cell-based. Particulars: compound 60 minutes at 37° C., IFNα 5000 U/ml for 15 minutes, pSTAT3 in lymphocyte population by flow cytometry, read-out: HWB IFN alpha IC50. (A flow cytometer gives signals particle by particle.)

Assay [2] concerns the target recombinant human kinase domain of JAK2 (Homo sapiens (Human), UniProt O60674). Kind of assay: JAK Caliper enzyme assay at 1 mM ATP (JAK2).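 Note: microfluidic mobility-shift read-out of fluorescent synthetic peptide phosphorylation, percent product converted from peak heights, room temperature, DMSO-only wells as uninhibited baseline, inhibition curve fit.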 It counts as biochemical.
Assay [3] addresses recombinant human kinase domain of JAK3 (Homo sapiens (Human), UniProt P52333). Description: JAK Caliper enzyme assay at 1 mM ATP (JAK3).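 Note: microfluidic mobility-shift readout of synthetic peptide phosphorylation, percent product converted from peak heights, normalized to DMSO-only wells as uninhibited baseline, room temperature incubation.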 Conditions: 1 mM ATP; read-out: IC50 (nM) JAK3. The format is biochemical.
The target of assay [4] is recombinant human kinase domain of JAK1 (Homo sapiens (Human), UniProt P23458). Description: JAK Caliper enzyme assay at 1 mM ATP (JAK1).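 Note: microfluidic mobility-shift readout of synthetic fluorescent peptide phosphorylation, percent product converted from peak height, inhibition relative to DMSO-only wells as uninhibited baseline, room temperature incubation.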 It counts as biochemical. Conditions: 1 mM ATP; read-out: IC50 (nM) JAK1.
Assay [5] addresses recombinant human kinase domain of TYK2 (Homo sapiens (Human), UniProt P29597). Description: JAK Caliper enzyme assay at 1 mM ATP (TYK2).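 Note: microfluidic mobility-shift readout of synthetic peptide phosphorylation by TYK2, tuned to 20–30% conversion at room temperature, reaction stopped with EDTA, DMSO-only wells as uninhibited baseline.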 The format is biochemical. Conditions: 1 mM ATP; read-out: IC50 (nM) TYK2.

recombinant human kinase domain of JAK2, sequence (O60674 849-1124): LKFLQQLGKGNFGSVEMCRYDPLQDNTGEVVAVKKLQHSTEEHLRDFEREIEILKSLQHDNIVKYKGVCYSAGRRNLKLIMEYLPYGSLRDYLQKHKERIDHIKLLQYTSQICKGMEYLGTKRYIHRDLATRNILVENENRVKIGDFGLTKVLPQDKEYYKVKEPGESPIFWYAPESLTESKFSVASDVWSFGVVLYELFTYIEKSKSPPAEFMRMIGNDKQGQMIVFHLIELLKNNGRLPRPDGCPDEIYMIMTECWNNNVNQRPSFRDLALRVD
recombinant human kinase domain of TYK2, sequence (P29597 897-1176): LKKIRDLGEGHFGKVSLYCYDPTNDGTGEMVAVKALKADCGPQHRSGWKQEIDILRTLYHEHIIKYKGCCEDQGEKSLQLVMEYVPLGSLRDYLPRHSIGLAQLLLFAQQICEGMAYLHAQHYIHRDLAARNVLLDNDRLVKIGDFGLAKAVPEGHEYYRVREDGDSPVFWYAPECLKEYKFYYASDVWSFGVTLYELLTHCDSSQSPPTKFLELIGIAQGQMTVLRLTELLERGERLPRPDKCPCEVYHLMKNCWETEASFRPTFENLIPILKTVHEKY
recombinant human kinase domain of JAK3, sequence (P52333 822-1111): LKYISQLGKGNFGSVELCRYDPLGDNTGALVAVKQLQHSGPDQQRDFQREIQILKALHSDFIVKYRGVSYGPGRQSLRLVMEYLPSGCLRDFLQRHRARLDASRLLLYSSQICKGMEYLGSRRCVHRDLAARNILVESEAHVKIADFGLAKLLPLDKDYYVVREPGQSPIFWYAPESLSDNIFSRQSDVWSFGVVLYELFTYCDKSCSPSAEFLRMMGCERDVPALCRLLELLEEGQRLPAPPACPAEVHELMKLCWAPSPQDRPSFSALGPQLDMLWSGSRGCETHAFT
recombinant human kinase domain of JAK1, sequence (P23458 875-1153): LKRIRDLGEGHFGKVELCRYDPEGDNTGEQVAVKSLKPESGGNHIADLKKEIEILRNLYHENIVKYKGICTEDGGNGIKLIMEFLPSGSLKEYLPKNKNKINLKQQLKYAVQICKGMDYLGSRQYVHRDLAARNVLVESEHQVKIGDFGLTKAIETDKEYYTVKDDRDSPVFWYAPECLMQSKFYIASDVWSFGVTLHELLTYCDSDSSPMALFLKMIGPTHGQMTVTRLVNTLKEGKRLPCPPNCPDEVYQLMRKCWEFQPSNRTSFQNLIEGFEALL

As to `CCNC(=O)N1[C@@H]2CC[C@H]1CN(c1ccnc(Nc3cnc(C(=O)NC)c(Cl)c3)n1)C2` [Example 75, (1R,5S)-3-(2-{[5-chloro-6-(methylcarbamoyl)pyridin-3-yl]amino}pyrimidin-4-yl)-N-ethyl-3,8-diazabicyclo[3.2.1]octane-8-carboxamide], the IC50 in assay [1] was 0.751 µM; in assay [2], 1290 nM; in assay [3], over 10000 nM; in assay [4], 462 nM; in assay [5] it was 66 nM.

In the case of `O=C([C@@H]1CC1(F)F)N1[C@@H]2CC[C@H]1CN(c1ccnc(Nc3cnc(CCO)c(Cl)c3)n1)C2` [Example 18, [(1R,5S)-3-(2-{[5-chloro-6-(2-hydroxyethyl)pyridin-3-yl]amino}pyrimidin-4-yl)-3,8-diazabicyclo[3.2.1]oct-8-yl][(1S)-2,2-difluorocyclopropyl]methanone], the IC50 was 0.338 µM in assay [1]; 331 nM in assay [2]; over 10000 nM in assay [3]; 352 nM in assay [4]; 62 nM in assay [5].

With `N#CCCN1[C@@H]2CC[C@H]1CN(c1ccnc(Nc3cn[nH]c3)n1)C2` [Example 79, 3-{(1R,5S)-3-[2-(1H-pyrazol-4-ylamino)pyrimidin-4-yl]-3,8-diazabicyclo[3.2.1]oct-8-yl}propanenitrile], the IC50 in assay [1] stood at 0.065 µM; in assay [2] it was 406 nM; in assay [3], 8420 nM; in assay [4], 38 nM; in assay [5], 34 nM.

Regarding `CNC(=O)c1ncc(Nc2nccc(N3C[C@H]4CC[C@@H](C3)N4C(=O)C3CC3)n2)cc1C` [Example 6, 5-({4-[(1R,5S)-8-(cyclopropylcarbonyl)-3,8-diazabicyclo[3.2.1]oct-3-yl]pyrimidin-2-yl}amino)-N,3-dimethylpyridine-2-carboxamide], the IC50 was 0.232 µM in assay [1]; 754 nM in assay [2]; over 10000 nM in assay [3]; 337 nM in assay [4]; 36 nM in assay [5].

Regarding `Cn1cc(Nc2nccc(N3C[C@H]4CC[C@@H](C3)N4Cc3nccs3)n2)cn1` [Example 57, N-(1-methyl-1H-pyrazol-4-yl)-4-[(1R,5S)-8-(1,3-thiazol-2-ylmethyl)-3,8-diazabicyclo[3.2.1]oct-3-yl]pyrimidin-2-amine], the IC50 in assay [1] was 0.338 µM; in assay [2], 1070 nM; in assay [3], over 10000 nM; in assay [4], 294 nM; in assay [5], 89 nM.

As to `CC(C)(C#N)c1ccc(Nc2nccc(N3C[C@H]4CC[C@@H](C3)N4C(=O)[C@@H]3CC3(F)F)n2)cn1` [Example 26, 2-[5-({4-[(1R,5S)-8-{[(1S)-2,2-difluorocyclopropyl]carbonyl}-3,8-diazabicyclo[3.2.1]oct-3-yl]pyrimidin-2-yl}amino)pyridin-2-yl]-2-methylpropanenitrile], the IC50 was 0.247 µM in assay [1]; 192 nM in assay [2]; over 10000 nM in assay [3]; 60 nM in assay [4]; 25 nM in assay [5].

`CCNC(=O)N1[C@@H]2CC[C@H]1CN(c1ccnc(Nc3cnsc3)n1)C2` [Example 74, (1R,5S)—N-ethyl-3-[2-(1,2-thiazol-4-ylamino)pyrimidin-4-yl]-3,8-diazabicyclo[3.2.1 l]octane-8-carboxamide]: the IC50 in assay [1] was 0.213 µM; in assay [2], 691 nM; in assay [3] it was over 10000 nM; in assay [4] it was 67 nM; in assay [5] it was 65 nM.

With `O=C([C@@H]1CC1(F)F)N1[C@@H]2CC[C@H]1CN(c1ccnc(Nc3cnc(CCO)c(F)c3)n1)C2` [Example 19, [(1S)-2,2-difluorocyclopropyl][(1R,5S)-3-(2-{[5-fluoro-6-(2-hydroxyethyl)pyridin-3-yl]amino}pyrimidin-4-yl)-3,8-diazabicyclo[3.2.1]oct-8-yl]methanone], the IC50 in assay [1] was 0.238 µM; in assay [2], 402 nM; in assay [3], over 10000 nM; in assay [4], 463 nM; in assay [5] it was 52 nM.

Regarding `CCNC(=O)c1ccc(Nc2nccc(N3CC4CC(C3)N4C(=O)C(F)(F)F)n2)cc1C` [Example 115, N-ethyl-2-methyl-4-({4-[6-(trifluoroacetyl)-3,6-diazabicyclo[3.1.1]hept-3-yl]pyrimidin-2-yl}amino)benzamide], the IC50 was 0.234 µM in assay [1]; 3310 nM in assay [2]; over 10000 nM in assay [3]; 3790 nM in assay [4]; 64 nM in assay [5].

Take `CNC(=O)c1ncc(Nc2nccc(N3C[C@H]4CC[C@@H](C3)N4C(=O)[C@@H]3CC3(F)F)n2)cc1C` (single isomer, unassigned) [Example 33]: the IC50 is 0.122 µM in assay [1]; 116 nM in assay [2]; 9280 nM in assay [3]; 62 nM in assay [4]; 15 nM in assay [5].

For the compound `CNC(=O)c1ncc(Nc2nccc(N3C[C@H]4CC[C@@H](C3)N4Cc3ccno3)n2)cc1C` [Example 53, N,3-dimethyl-5-({4-[(1R,5S)-8-(1,2-oxazol-5-ylmethyl)-3,8-diazabicyclo[3.2.1]oct-3-yl]pyrimidin-2-yl}amino)pyridine-2-carboxamide], the IC50 in assay [1] is 0.287 µM; in assay [2], 375 nM; in assay [3], over 10000 nM; in assay [4], 226 nM; in assay [5] it was 24 nM.

As for `CNC(=O)c1ncc(Nc2nccc(N3C[C@H]4CC[C@@H](C3)N4C(=O)NCC(F)(F)F)n2)cc1C` [Example 89], the IC50 is 0.118 µM in assay [1]; 65 nM in assay [2]; 4430 nM in assay [3]; 10 nM in assay [4]; 9 nM in assay [5].

Take `CC(CC#N)N1[C@@H]2CC[C@H]1CN(c1ccnc(Nc3cnn(C)c3)n1)C2` (stereo partly drawn) [Example 80, 3-[(1R,5S)-3-{2-[(1-methyl-1H-pyrazol-4-yl)amino]pyrimidin-4-yl}-3,8-diazabicyclo[3.2.1 l]oct-8-yl]butanenitrile]: the half-inhibitory concentration (IC50) in assay [1] was 0.112 µM; in assay [2], 436 nM; in assay [3], over 10000 nM; in assay [4], 190 nM; in assay [5] it was 79 nM.

As for `O=C([C@@H]1CC1(F)F)N1[C@@H]2CC[C@H]1CN(c1ccnc(Nc3cnc(N4CC[C@H](O)C4)c(F)c3)n1)C2` [Example 20, [(1S)-2,2-difluorocyclopropyl]{(1R,5S)-3-[2-({5-fluoro-6-[(3S)-3-hydroxypyrrolidin-1-yl]pyridin-3-yl}amino)pyrimidin-4-yl]-3,8-diazabicyclo[3.2.1]oct-8-yl}methanone], the IC50 in assay [1] was 0.458 µM; in assay [2], 346 nM; in assay [3], over 10000 nM; in assay [4], 314 nM; in assay [5] it was 58 nM.

For `CNC(=O)c1ncc(Nc2nccc(N3C[C@H]4CC[C@@H](C3)N4C(=O)[C@@H]3C[C@H]3C#N)n2)cc1F` [Example 27, 5-({4-[(1R,5S)-8-{[(1R,2R)-2-cyanocyclopropyl]carbonyl}-3,8-diazabicyclo[3.2.1]oct-3-yl]pyrimidin-2-yl}amino)-3-fluoro-N-methylpyridine-2-carboxamide], the IC50 in assay [1] was 0.139 µM; in assay [2], 640 nM; in assay [3], over 10000 nM; in assay [4], 78 nM; in assay [5] it was 61 nM.

Consider `Cn1cc(Nc2nccc(N3C[C@H]4CC[C@@H](C3)N4C3CC(C#N)C3)n2)cn1` (stereo partly drawn) [Example 59, 3-[(1R,5S)-3-{2-[(1-methyl-1H-pyrazol-4-yl)amino]pyrimidin-4-yl}-3,8-diazabicyclo[3.2.1]oct-8-yl]cyclobutanecarbonitrile], for which the half-inhibitory concentration (IC50) in assay [1] came to 0.084 µM; in assay [2], 236 nM; in assay [3], 8800 nM; in assay [4], 78 nM; in assay [5] it was 62 nM.

For `Cn1cc(Nc2nccc(N3C[C@H]4CC[C@@H](C3)N4C3CN(S(C)(=O)=O)C3)n2)cn1` [Example 60, N-(1-methyl-1H-pyrazol-4-yl)-4-{(1R,5S)-8-[1-(methylsulfonyl)azetidin-3-yl]-3,8-diazabicyclo[3.2.1]oct-3-yl}pyrimidin-2-amine], the IC50 in assay [1] was 0.103 µM; in assay [2] it was 159 nM; in assay [3] it was over 10000 nM; in assay [4], 36 nM; in assay [5], 70 nM.

`CCNC(=O)N1[C@@H]2CC[C@H]1CN(c1ccnc(Nc3cnc(C(=O)NC)c(F)c3)n1)C2` [Example 87, (1R,5S)—N-ethyl-3-(2-{[5-fluoro-6-(methylcarbamoyl)pyridin-3-yl]amino}pyrimidin-4-yl)-3,8-diazabicyclo[3.2.1]octane-8-carboxamide]: the IC50 in assay [1] was 0.582 µM; in assay [2], 1790 nM; in assay [3], over 10000 nM; in assay [4] it was 337 nM; in assay [5], 93 nM.

With `CCNC(=O)c1ccc(Nc2nccc(N3CC4CC(C3)N4C(=O)C(C)(F)F)n2)cc1` [Example 114, 4-({4-[6-(2,2-difluoropropanoyl)-3,6-diazabicyclo[3.1.1]hept-3-yl]pyrimidin-2-yl}amino)-N-ethylbenzamide], the IC50 in assay [1] is 0.166 µM; in assay [2], 1860 nM; in assay [3], over 10000 nM; in assay [4] it was 955 nM; in assay [5] it was 62 nM.

With `CCNC(=O)c1ccc(Nc2nccc(N3CC4CC(C3)N4C(=O)C3CC3)n2)cc1C` [Example 113, 4-({4-[6-(cyclopropylcarbonyl)-3,6-diazabicyclo[3.1.1]hept-3-yl]pyrimidin-2-yl}amino)-N-ethyl-2-methylbenzamide], the IC50 in assay [1] was 0.939 µM; in assay [2], 7860 nM; in assay [3] it was over 10000 nM; in assay [4], 8580 nM; in assay [5], 82 nM.
